Earlier results in Sander's compilation of Henry's law constants (doi:10.1021/cr60306a003).

Experiment: Henry solubility constant Hcp at 298.15 K (mol/(m3 Pa))
Conditions: reference: Wilhelm et al. (1977); cited value

| Henry solubility constant Hcp | SMILES |
| --- | --- |
| 0.00013 | C=CCC [1-butene] |
| 0.00075 | C#CCC [1-butyne] |
| 8e-06 | CC(C)C [2-methylpropane] |
| 5.6e-05 | C=C(C)C [2-methylpropene] |
| 0.00037 | C#CC=C [3-buten-1-yne] |
| 1.4e-05 | [Ar] [argon] |
| 1.2e-05 | CCCC [butane] |
| 0.00033 | O=C=O [carbon dioxide] |
| 3.4e-06 | FC(F)(F)C(F)(F)Cl [chloropentafluoroethane] |
| 9.3e-06 | FC(F)(F)Cl [chlorotrifluoromethane] |
| 0.00011 | C1CC1 [cyclopropane] |
| 5.9e-06 | CC(C)(C)C [dimethylpropane] |
| 0.00024 | [N-]=[N+]=O [dinitrogen monoxide] |
| 4.7e-05 | C=C [ethene] |
| 0.00041 | C#C [ethyne] |
| 0.00058 | CF [fluoromethane] |
| 3.8e-06 | [He] [helium] |
| 7.7e-06 | [HH] [hydrogen] |
| 2.5e-05 | [Kr] [krypton] |
| 4.4e-06 | [Ne] [neon] |
| 1.3e-05 | O=O [oxygen] |
| 7.3e-05 | C=CC [propene] |
| 9.2e-05 | [Rn] [radon] |
| 2.4e-06 | FS(F)(F)(F)(F)F [sulfur hexafluoride] |
| 0.00013 | FC(F)F [trifluoromethane] |
| 4.2e-05 | [Xe] [xenon] |

| SMILES | Henry solubility constant Hcp |
| --- | --- |
| C=CC=C [1,3-butadiene] | 0.00014 |
| CBr [bromomethane] | 0.0016 |
| [C-]#[O+] [carbon monoxide] | 9.4e-06 |
| O=C=S [carbon oxide sulfide] | 0.00021 |
| [O][Cl+][O-] [chlorine dioxide] | 0.01 |
| FC(F)Cl [chlorodifluoromethane] | 0.00034 |
| C=CCl [chloroethene] | 0.00045 |
| FCCl [chlorofluoromethane] | 0.0015 |
| FC(F)(Cl)Cl [dichlorodifluoromethane] | 2.1e-05 |
| CNC [dimethylamine] | 0.3 |
| FN(F)N(F)F [dinitrogen tetrafluoride] | 8.4e-06 |
| CCN [ethanamine] | 0.35 |
| FC(F)=C(F)C(F)(F)F [hexafluoropropene] | 2.9e-06 |
| CN [methanamine] | 0.35 |
| FN(F)F [nitrogen trifluoride] | 7.9e-06 |
| O=[O+][O-] [ozone] | 0.00013 |
| P [phosphorus trihydride] | 8.1e-05 |
| O=S=O [sulfur dioxide] | 0.014 |
| FC(F)=C(F)F [tetrafluoroethene] | 1.6e-05 |
| FC(F)(F)F [tetrafluoromethane] | 2.1e-06 |
